Literature values as cited in paper PMC8395767, “Worsening of the Toxic Effects of (±)Cis-4,4′-DMAR Following Its Co-Administration with (±)Trans-4,4′-DMAR: Neuro-Behavioural, Physiological, Immunohistochemical and Metabolic Studies in Mice” (International Journal of Molecular Sciences, 2021).

Assays:
5-HT2A = target: 5-HT2A; set-up: method as in PMID 29908239; conditions: read-out: Ki at 5-HT2A receptor; cited from earlier work
5-HT2C = target: 5-HT2C; set-up: method as in PMID 29908239; conditions: read-out: Ki at 5-HT2C receptor; cited from earlier work
DAT/SERT = test system: DAT/SERT; set-up: method as in PMID 30776375; conditions: cited from earlier work
[1] = test system: dopamine (DAT) transporter; set-up: method as in PMID 30776375, PMID 25331619, PMID 29908239; conditions: in vitro; cited from earlier work
[2] = test system: noradrenaline (NET) transporter; set-up: method as in PMID 30776375, PMID 25331619, PMID 29908239; conditions: in vitro; cited from earlier work
serotonin transporters = test system: serotonin transporters; set-up: method as in PMID 30776375, PMID 25331619, PMID 29908239; conditions: in vitro; cited from earlier work
rat brain synaptosomes = test system: rat brain synaptosomes; set-up: method as in PMID 24841869; conditions: compared with d-amphetamine, aminorex and 4-MAR; cited from earlier work

Cc1ccc(C2OC(N)=NC2C)cc1 (stereo not shown) [4,4′-DMAR, 4-Methyl-5-(4-methylphenyl)-4,5-dihydrooxazol-2-amine]
Ki (5-HT2A): ~8.9 µM | Ki (5-HT2C): ~11 µM | DAT/SERT ratio (DAT/SERT): 0.4 | Inhibitory activity on dopamine transporter (DAT) [1]: potent inhibitory activity | Inhibitory activity on noradrenaline transporter (NET) [2]: potent inhibitory activity | Inhibitory activity on serotonin transporters (serotonin transporters): potent inhibitory activity | Release of 5-HT from rat brain synaptosomes (rat brain synaptosomes): most potent releaser
